# Experiments:
# human TTK = biological target: T1, human TTK (Homo sapiens, UniProt P33981); assay: TTK inhibition assay (indirect ELISA); type: biochemical; details: GST-TTK 0.68 nM, 16 μM ATP; read-out: IC50 Ranges TTK
# T1 construct: amino terminal GST fusion of full length human TTK; purchased Invitrogen
# T1 sequence (P33981 1-857): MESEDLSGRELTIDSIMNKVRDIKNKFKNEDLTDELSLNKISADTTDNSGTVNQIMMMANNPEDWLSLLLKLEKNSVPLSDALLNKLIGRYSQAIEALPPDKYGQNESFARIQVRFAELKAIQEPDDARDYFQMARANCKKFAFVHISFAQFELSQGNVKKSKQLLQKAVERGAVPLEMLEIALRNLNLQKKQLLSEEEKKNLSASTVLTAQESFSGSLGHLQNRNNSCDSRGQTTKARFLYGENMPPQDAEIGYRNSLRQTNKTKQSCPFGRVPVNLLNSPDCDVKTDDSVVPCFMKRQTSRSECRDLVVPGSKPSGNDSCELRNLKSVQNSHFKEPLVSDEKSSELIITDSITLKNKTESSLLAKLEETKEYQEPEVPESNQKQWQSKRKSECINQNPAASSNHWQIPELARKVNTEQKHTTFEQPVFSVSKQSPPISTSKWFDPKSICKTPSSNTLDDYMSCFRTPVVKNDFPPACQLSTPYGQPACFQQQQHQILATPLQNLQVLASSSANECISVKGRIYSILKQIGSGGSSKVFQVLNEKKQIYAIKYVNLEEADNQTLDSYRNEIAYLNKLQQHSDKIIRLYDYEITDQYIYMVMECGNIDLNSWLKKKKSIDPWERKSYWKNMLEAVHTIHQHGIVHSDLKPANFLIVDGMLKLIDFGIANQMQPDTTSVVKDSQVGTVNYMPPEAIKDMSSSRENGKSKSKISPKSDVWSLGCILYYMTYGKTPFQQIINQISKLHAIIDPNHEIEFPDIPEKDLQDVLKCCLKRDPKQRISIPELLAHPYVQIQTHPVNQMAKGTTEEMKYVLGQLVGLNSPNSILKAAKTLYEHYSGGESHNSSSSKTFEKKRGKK
# Method: Active TTK was purchased from Invitrogen as an amino terminal GST fusion of full length human TTK.
# TTK activity was measured using an indirect ELISA detection system. GST-TTK (0.68 nM) was incubated in the presence of 16 μM ATP (Sigma cat#A7699), 50 mM Hepes pH 7.2, 1 mM EGTA, 10 mM MgCl2, and 0.1% Pluronic in a 96 well microtitre plate pre-coated with amino terminal 6 histidine, sumo tagged TTK (amino acid residues 1-275). The reaction was allowed to proceed for 30 minutes, followed by 5 washes of the plate with Wash Buffer (phosphate buffered saline supplemented with 0.2% Tween 20), and incubation for 30 minutes with a 1:3000 dilution of primary antibody (Cell Signaling cat#9381). The plate was washed 5 times with Wash Buffer, incubated for 30 minutes in the presence of secondary antibody coupled to horse radish peroxidase (BioRad cat#1721019, 1:3000 concentration), washed an additional 5 times with Wash Buffer, and incubated in the presence of TMB substrate (Sigma cat#T0440). The colourimetric reaction was allowed to continue for 5 minutes, followed by addition of stop solution (0.5 N sulphuric acid), and quantified by detection at 450 nm with either a monochromatic or filter based plate reader (Molecular Devices M5 or Beckman DTX880, respectively).
# Compounds were pre-incubated in the presence of enzyme for 5 minutes prior to addition of ATP and the activity remaining quantified using the above described activity assay. The % Inhibition of a compound was determined using the following formula; % Inhibition=100×(1−(experimental value−background value)/(high activity control−background value)). The IC50 value was determined using a non-linear 4 point logistic curve fit (XLfit4, IDBS) with the formula; (A+(B/(1+((x/C)̂D)))), where A=background value, B=range, C=inflection point, D=curve fit parameter.
# human PLK4 = biological target: T2, human PLK4 (Homo sapiens, UniProt O00444); assay: PLK4 inhibition assay (indirect ELISA); type: biochemical; details: GST-PLK4 4 nM, 15 μM ATP; read-out: IC50 Ranges PLK4
# T2 construct: amino terminal GST fusion of residues 1-391 of human PLK4; made in house; host or cells: E. coli
# T2 sequence (O00444 1-391): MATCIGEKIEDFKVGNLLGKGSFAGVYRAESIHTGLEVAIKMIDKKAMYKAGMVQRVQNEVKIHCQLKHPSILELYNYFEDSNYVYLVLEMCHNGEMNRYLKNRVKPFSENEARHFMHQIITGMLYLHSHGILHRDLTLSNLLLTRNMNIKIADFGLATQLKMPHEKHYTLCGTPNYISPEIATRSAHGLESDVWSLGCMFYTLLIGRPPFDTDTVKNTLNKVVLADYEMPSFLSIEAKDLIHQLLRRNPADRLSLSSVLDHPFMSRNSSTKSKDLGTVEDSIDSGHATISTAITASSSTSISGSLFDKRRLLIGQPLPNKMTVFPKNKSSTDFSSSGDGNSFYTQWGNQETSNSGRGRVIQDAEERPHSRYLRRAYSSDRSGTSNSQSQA
# How it was run: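 Dephosphorylated GST-tagged human PLK4 (residues 1-391, E. coli), 4 nM, preincubated 15 min with compound, then reacted 30 min with 15 μM ATP on MBP-coated plates (50 mM HEPES pH 7.5, 10 mM MgCl2, 0.01% Brij 35). Phospho-MBP detected by antibody ELISA at 450 nm. Tested at 10 μM or 10-point titrations; IC50 from 4-parameter logistic fit.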
# [1] = system: MDA-MB-231 breast cancer cells; assay: Cell growth inhibition, Sulforhodamine B assay, MDA-MB-231; type: cell-based; details: Homo sapiens, 120 h, 5 days culture, SRB assay, read-out: Cell Line GI50 Range MDA-MB-231
# [2] = system: MDA-MB-468 breast cancer cells; assay: Cell growth inhibition, Sulforhodamine B assay, MDA-MB-468; type: cell-based; details: Homo sapiens, 120 h, 5 days culture, SRB assay, read-out: Cell Line GI50 Range MDA-MB-468
# [3] = system: HCT116 colon cancer cells; assay: Cell growth inhibition, Sulforhodamine B assay, HCT116; type: cell-based; details: Homo sapiens, HCT-116, 120 h, 5 days culture, SRB assay, read-out: Cell Line GI50 Range HCT116
# HT29 colon cancer cells = assay: Cell growth inhibition, Sulforhodamine B assay, HT29; type: cell-based; details: Homo sapiens, HT-29, 120 h, 5 days culture, SRB assay, read-out: Cell Line GI50 Range HT29
# [4] = system: PA-1 ovarian cancer cells; assay: Cell growth inhibition, Sulforhodamine B assay, PA-1; type: cell-based; details: 120 h, 5 days culture, SRB assay, read-out: Cell Line GI50 Range PA-1
# [5] = system: OVCAR-3 ovarian cancer cells; assay: Cell growth inhibition, Sulforhodamine B assay, OVCAR-3; type: cell-based; details: Homo sapiens, 120 h, 5 days culture, SRB assay, read-out: Cell Line GI50 Range OVCAR-3
# Aurora B = biological target: T3, Aurora B (Homo sapiens, UniProt Q96GD4); assay: Aurora B inhibition assay (Z-Lyte); type: biochemical; details: 28 nM Aurora B, 128 μM ATP; read-out: IC50 Ranges Aurora B
# T3 construct: purchased Invitrogen PV3970
# Method: Aurora B inhibition was determined using the Z-Lyte assay kit from Invitrogen. The assay was performed using the recommended manufacturer's instructions with 128 μM ATP and 28 nM Aurora B (Invitrogen cat #PV3970). The % inhibition values were determined according to the manufacturer's directions and IC50 values were obtained using a non-linear 4 point logistic curve fit (XLfit4, IDBS)
# T3 sequence (Q96GD4 whole entry): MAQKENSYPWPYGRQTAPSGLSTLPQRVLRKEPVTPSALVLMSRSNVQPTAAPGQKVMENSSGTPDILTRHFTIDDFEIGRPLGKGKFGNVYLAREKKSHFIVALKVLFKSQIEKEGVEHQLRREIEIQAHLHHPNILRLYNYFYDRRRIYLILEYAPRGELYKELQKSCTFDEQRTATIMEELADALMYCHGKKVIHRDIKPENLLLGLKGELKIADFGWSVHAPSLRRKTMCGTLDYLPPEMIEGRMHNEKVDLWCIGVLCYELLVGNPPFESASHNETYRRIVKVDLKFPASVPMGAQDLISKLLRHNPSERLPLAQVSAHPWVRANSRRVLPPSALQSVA
smiles,measurement,setting,value
"CO[C@@H](C(=O)Nc1ccc2[nH]nc(-c3ccc(O[C@@H]4CCN(C)C[C@@H]4F)cc3)c2c1)c1ccccc1 (relative stereo) [Example A135, (R)—N-(3-(4-(((3S,4R)-3-fluoro-1-methylpiperidin-4-yl)oxy)phenyl)-1H-indazol-5-yl)-2-methoxy-2-phenylacetamide]",IC50,human TTK,≤ 5 µM
same,IC50,human PLK4,≤ 5 µM
same,GI50,[1],≤ 5 µM
same,GI50,[2],≤ 5 µM
same,GI50,[3],≤ 5 µM
same,GI50,HT29 colon cancer cells,≤ 5 µM
same,GI50,[4],≤ 5 µM
same,GI50,[5],≤ 5 µM
"O=C(Nc1ccc2[nH]nc(-c3ccc(OC4CCN(CCF)CC4)cc3)c2c1)C(c1ccsc1)N1CCCC1 (stereo not shown) [Example A102, N-(3-(4-((1-(2-fluoroethyl)piperidin-4-yl)oxy)phenyl)-1H-indazol-5-yl)-2-(pyrrolidin-1-yl)-2-(thiophen-3-yl)acetamide]",IC50,human TTK,≤ 5 µM
same,IC50,human PLK4,≤ 5 µM
same,IC50,Aurora B,≤ 5 µM
same,GI50,[2],≤ 5 µM
same,GI50,[3],≤ 5 µM
same,GI50,HT29 colon cancer cells,≤ 5 µM
same,GI50,[4],≤ 5 µM
same,GI50,[5],5 to 20 µM
"CCc1cccc(CC)c1NC(=O)Nc1ccc2[nH]nc(-c3ccc4c(c3)CN(C)CCO4)c2c1 [Example A114, 1-(2,6-diethylphenyl)-3-(3-(4-methyl-2,3,4,5-tetrahydrobenzo[f][1,4]oxazepin-7-yl)-1H-indazol-5-yl)urea]",IC50,human TTK,≤ 5 µM
same,IC50,human PLK4,≤ 5 µM
same,GI50,[1],≤ 5 µM
same,GI50,[2],≤ 5 µM
same,GI50,[3],≤ 5 µM
same,GI50,HT29 colon cancer cells,≤ 5 µM
same,GI50,[4],≤ 5 µM
same,GI50,[5],5 to 20 µM
"CC(C)(C)OC(=O)N1CCC(Oc2ccc(-c3n[nH]c4ccc(NC(=O)C(c5ccsc5)N5CCCC5)cc34)cc2)CC1 (stereo not shown) [Example A115, tert-butyl 4-(4-(5-(2-(pyrrolidin-1-yl)-2-(thiophen-3-yl)acetamido)-1H-indazol-3-yl)phenoxy)piperidine-1-carboxylate]",IC50,human TTK,≤ 5 µM
same,IC50,human PLK4,≤ 5 µM
same,GI50,[1],≤ 5 µM
same,GI50,[2],≤ 5 µM
same,GI50,[3],≤ 5 µM
same,GI50,HT29 colon cancer cells,≤ 5 µM
same,GI50,[4],≤ 5 µM
same,GI50,[5],≤ 5 µM
CN1CCC(Oc2ccc(-c3n[nH]c4ccc(C(=O)NC(c5ccsc5)C5CCC5)cc34)cc2)CC1 (stereo not shown) [Example A121],IC50,human TTK,≤ 5 µM
same,IC50,human PLK4,≤ 5 µM
same,IC50,Aurora B,≤ 5 µM
same,GI50,[2],≤ 5 µM
same,GI50,[3],≤ 5 µM
same,GI50,HT29 colon cancer cells,≤ 5 µM
same,GI50,[4],≤ 5 µM
same,GI50,[5],≤ 5 µM
"COCCN1CCC(Oc2ccc(-c3n[nH]c4ccc(C(=O)N[C@H](C)c5ccccc5F)cc34)cc2)CC1 [Example A129, (R)—N-(1-(2-fluorophenyl)ethyl)-3-(4-((1-(2-methoxyethyl)piperidin-4-yl)oxy)phenyl)-1H-indazole-5-carboxamide]",IC50,human TTK,≤ 5 µM
same,IC50,human PLK4,≤ 5 µM
same,GI50,[1],≤ 5 µM
same,GI50,[2],≤ 5 µM
same,GI50,[3],≤ 5 µM
same,GI50,HT29 colon cancer cells,≤ 5 µM
same,GI50,[4],≤ 5 µM
same,GI50,[5],5 to 20 µM
"O=C(NC(c1ccccc1)C1CC1)c1ccc2[nH]nc(-c3ccc(OCCN4CCOCC4)cc3)c2c1 (stereo not shown) [Example A140, N-(cyclopropyl(phenyl)methyl)-3-(4-(2-morpholinoethoxy)phenyl)-1H-indazole-5-carboxamide]",IC50,human TTK,≤ 5 µM
same,IC50,human PLK4,≤ 5 µM
same,GI50,[1],≤ 5 µM
same,GI50,[2],≤ 5 µM
same,GI50,[3],≤ 5 µM
same,GI50,HT29 colon cancer cells,≤ 5 µM
same,GI50,[4],≤ 5 µM
same,GI50,[5],≤ 5 µM
"Cc1ccccc1C(NC(=O)c1ccc2[nH]nc(-c3ccc(N4CC(O)C4)cc3)c2c1)C1CC1 (stereo not shown) [Example A141, N-(Cyclopropyl(o-tolyl)methyl)-3-(4-(3-hydroxyazetidin-1-yl)phenyl)-1H-indazole-5-carboxamide]",IC50,human TTK,≤ 5 µM
same,IC50,human PLK4,≤ 5 µM
same,GI50,[1],≤ 5 µM
same,GI50,[2],≤ 5 µM
same,GI50,[3],≤ 5 µM
same,GI50,HT29 colon cancer cells,≤ 5 µM
same,GI50,[4],≤ 5 µM
same,GI50,[5],≤ 5 µM
"CC[C@@H](NC(=O)c1ccc2[nH]nc(-c3ccc(OC4CCN(C5COC5)CC4)cc3)c2c1)c1ccccc1Cl [Example A192, (R)—N-(1-(2-chlorophenyl)propyl)-3-(4-((1-(oxetan-3-yl)piperidin-4-yl)oxy)phenyl)-1H-indazole-5-carboxamide]",IC50,human TTK,≤ 5 µM
same,IC50,human PLK4,≤ 5 µM
same,IC50,Aurora B,≤ 5 µM
same,GI50,[2],≤ 5 µM
same,GI50,[3],≤ 5 µM
same,GI50,[4],≤ 5 µM
same,GI50,[5],≤ 5 µM
"COc1cc(-c2n[nH]c3ccc(C(=O)NC(c4ccccc4)C4CC4)cc23)ccc1OC1CCN(C2COC2)CC1 (stereo not shown) [Example A194, N-(cyclopropyl(phenyl)methyl)-3-(3-methoxy-4-((1-(oxetan-3-yl)piperidin-4-yl)oxy)phenyl)-1H-indazole-5-carboxamide]",IC50,human TTK,≤ 5 µM
same,IC50,human PLK4,≤ 5 µM
same,IC50,Aurora B,≤ 5 µM
same,GI50,[1],≤ 5 µM
same,GI50,[2],≤ 5 µM
same,GI50,[3],≤ 5 µM
same,GI50,[4],≤ 5 µM
same,GI50,[5],≤ 5 µM
"CN1CCC(Oc2ccc(-c3n[nH]c4ccc(C(=O)NC(c5ccccn5)C5CC5)cc34)cc2Cl)CC1 (stereo not shown) [Example A198, 3-(3-chloro-4-((1-methylpiperidin-4-yl)oxy)phenyl)-N-(cyclopropyl(pyridin-2-yl)methyl)-1H-indazole-5-carboxamide]",IC50,human TTK,≤ 5 µM
same,IC50,human PLK4,≤ 5 µM
same,IC50,Aurora B,≤ 5 µM
same,GI50,[1],≤ 5 µM
same,GI50,[2],≤ 5 µM
same,GI50,[3],≤ 5 µM
same,GI50,[4],≤ 5 µM
same,GI50,[5],≤ 5 µM
"CN1CCC(Oc2ccc(-c3n[nH]c4ccc(C(=O)NC(c5ccccc5Cl)C5CCCC5)cc34)cc2)CC1 (stereo not shown) [Example A199, N-((2-chlorophenyl)(cyclopentyl)methyl)-3-(4-((1-methylpiperidin-4-yl)oxy)phenyl)-1H-indazole-5-carboxamide]",IC50,human TTK,≤ 5 µM
same,IC50,human PLK4,≤ 5 µM
same,IC50,Aurora B,≤ 5 µM
same,GI50,[1],≤ 5 µM
same,GI50,[2],≤ 5 µM
same,GI50,[3],≤ 5 µM
same,GI50,[4],≤ 5 µM
same,GI50,[5],≤ 5 µM
"CN1CCC(Oc2ccc(-c3n[nH]c4ccc(C(=O)N[C@H](CCO)c5ccccc5)cc34)cc2Cl)CC1 [Example A202, (R)-3-(3-chloro-4-((1-methylpiperidin-4-yl)oxy)phenyl)-N-(3-hydroxy-1-phenylpropyl)-1H-indazole-5-carboxamide]",IC50,human TTK,≤ 5 µM
same,IC50,human PLK4,≤ 5 µM
same,IC50,Aurora B,≤ 5 µM
same,GI50,[1],≤ 5 µM
same,GI50,[2],≤ 5 µM
same,GI50,[3],≤ 5 µM
same,GI50,[4],≤ 5 µM
same,GI50,[5],≤ 5 µM

# Reference: patent US20140051679A1, “KINASE INHIBITORS AND METHOD OF TREATING CANCER WITH SAME” (UNIVERISTY HEALTH NETWORKS, priority 2011, published 2014)
